The test system of the first assay is 1434 (donor line of iPSC-derived cardiomyocytes). The assay can be described thus: POD (EC95) for loss of peak frequency (asystole) vs vehicle; higher = less potent (higher point of departure). The settings on record: exposure time: 90 min. Here is the method:
(§1)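 Human iPSC-derived cardiomyocytes from 16 donors were exposed for 90 min at 37 °C to each PFAS at 0.1, 1, 10 and 100 µM in 0.5% DMSO, 384-well plates. Kinetic Ca2+ flux (FLIPR) and Hoechst nuclei counts were normalised to vehicle wells and fitted with a hierarchical Bayesian Hill model to give donor-specific PODs: EC05 for beat-rate increase or decrease and for decay-to-rise ratio increase (QT proxy), EC95 for peak-frequency loss (asystole), EC10 for total cell number loss. 0.03 µM is the lower bound.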
With `O=C(O)C(F)(F)C(F)(F)C(F)(F)F` [Perfluorobutanoic_acid], the POD vs vehicle is greater than 100 µM.

With `O=C(O)C(F)(F)C(F)(F)C(F)(F)C(F)(F)C(F)(F)C(F)(F)C(F)(F)C(F)(F)C(F)(F)F` [Perfluorodecanoic_acid], the POD vs vehicle was 67.4 µM.

`O=C(O)C(F)(F)C(F)(F)C(F)(F)C(F)(F)C(F)(F)C(F)(F)F` [Perfluoroheptanoic_acid] displayed a POD vs vehicle greater than 100 µM.

In turn, `NS(=O)(=O)C(F)(F)C(F)(F)C(F)(F)C(F)(F)C(F)(F)C(F)(F)F` [Perfluorohexanesulfonamide] gave a POD vs vehicle of 58.4 µM.

In turn, `O=S(=O)(O)C(F)(F)C(F)(F)C(F)(F)C(F)(F)C(F)(F)C(F)(F)F` [Perfluorohexanesulfonic_acid] showed a POD vs vehicle greater than 100 µM.

As for `O=C(O)C(F)(F)C(F)(F)C(F)(F)C(F)(F)C(F)(F)F` [Perfluorohexanoic_acid], the POD vs vehicle was greater than 100 µM.

Turning to `O=C(O)C(F)(F)C(F)(F)C(F)(F)C(F)(F)C(F)(F)C(F)(F)C(F)(F)C(F)(F)F` [Perfluorononanoic_acid], the POD vs vehicle was greater than 100 µM.

In turn, `NC(=O)C(F)(F)C(F)(F)C(F)(F)C(F)(F)C(F)(F)C(F)(F)C(F)(F)F` [Perfluorooctanamide] came in with a POD vs vehicle greater than 100 µM.

In turn, `N=C(N)C(F)(F)C(F)(F)C(F)(F)C(F)(F)C(F)(F)C(F)(F)C(F)(F)F` [Perfluorooctanamidine] yielded a POD vs vehicle greater than 100 µM.

Consider `O=S(=O)(O)C(F)(F)C(F)(F)C(F)(F)C(F)(F)C(F)(F)C(F)(F)C(F)(F)C(F)(F)F` [Perfluorooctanesulfonic_acid], for which the POD vs vehicle is greater than 100 µM.

Regarding `O=C(O)C(F)(F)C(F)(F)C(F)(F)C(F)(F)C(F)(F)C(F)(F)C(F)(F)F` [Perfluorooctanoic_acid], the POD vs vehicle is greater than 100 µM.

The compound `O=C(O)C(F)(F)C(F)(F)C(F)(F)C(F)(F)F` [Perfluoropentanoic_acid] gave a POD vs vehicle greater than 100 µM.

For `O=C(O)C(F)(F)C(F)(F)F` [Perfluoropropanoic_acid], the POD vs vehicle is greater than 100 µM.

In the case of `O=C(O)C(F)(F)C(F)(F)C(F)(F)C(F)(F)C(F)(F)C(F)(F)C(F)(F)C(F)(F)C(F)(F)C(F)(F)F` [Perfluoroundecanoic_acid], the POD vs vehicle was greater than 100 µM.

For the compound `O=S(=O)([O-])C(F)(F)C(F)(F)C(F)(F)C(F)(F)F.[K+]` [Potassium_perfluorobutanesulfonate], the POD vs vehicle is greater than 100 µM.

For a further assay, the system named is 1083 (donor line of iPSC-derived cardiomyocytes). The assay is described as above. The settings on record: exposure time: 90 min. On the procedure: as §1
Regarding `O=C(O)C(F)(F)C(F)(F)C(F)(F)F` [Perfluorobutanoic_acid], the POD vs vehicle is greater than 100 µM.

On to `O=C(O)C(F)(F)C(F)(F)C(F)(F)C(F)(F)C(F)(F)C(F)(F)C(F)(F)C(F)(F)C(F)(F)F` [Perfluorodecanoic_acid], for which the POD vs vehicle worked out at 74.6 µM.

Compound `O=C(O)C(F)(F)C(F)(F)C(F)(F)C(F)(F)C(F)(F)C(F)(F)F` [Perfluoroheptanoic_acid] came in with a POD vs vehicle greater than 100 µM.

`NS(=O)(=O)C(F)(F)C(F)(F)C(F)(F)C(F)(F)C(F)(F)C(F)(F)F` [Perfluorohexanesulfonamide] returned a POD vs vehicle greater than 100 µM.

In turn, `O=S(=O)(O)C(F)(F)C(F)(F)C(F)(F)C(F)(F)C(F)(F)C(F)(F)F` [Perfluorohexanesulfonic_acid] had a POD vs vehicle greater than 100 µM.

As for `O=C(O)C(F)(F)C(F)(F)C(F)(F)C(F)(F)C(F)(F)F` [Perfluorohexanoic_acid], the POD vs vehicle was greater than 100 µM.

In turn, `O=C(O)C(F)(F)C(F)(F)C(F)(F)C(F)(F)C(F)(F)C(F)(F)C(F)(F)C(F)(F)F` [Perfluorononanoic_acid] registered a POD vs vehicle greater than 100 µM.

Turning to `NC(=O)C(F)(F)C(F)(F)C(F)(F)C(F)(F)C(F)(F)C(F)(F)C(F)(F)F` [Perfluorooctanamide], the POD vs vehicle was greater than 100 µM.

Compound `N=C(N)C(F)(F)C(F)(F)C(F)(F)C(F)(F)C(F)(F)C(F)(F)C(F)(F)F` [Perfluorooctanamidine] yielded a POD vs vehicle greater than 100 µM.

For the compound `O=S(=O)(O)C(F)(F)C(F)(F)C(F)(F)C(F)(F)C(F)(F)C(F)(F)C(F)(F)C(F)(F)F` [Perfluorooctanesulfonic_acid], the POD vs vehicle was greater than 100 µM.

Turning to `O=C(O)C(F)(F)C(F)(F)C(F)(F)C(F)(F)C(F)(F)C(F)(F)C(F)(F)F` [Perfluorooctanoic_acid], the POD vs vehicle was greater than 100 µM.

`O=C(O)C(F)(F)C(F)(F)C(F)(F)C(F)(F)F` [Perfluoropentanoic_acid] yielded a POD vs vehicle greater than 100 µM.

Take `O=C(O)C(F)(F)C(F)(F)F` [Perfluoropropanoic_acid]: the POD vs vehicle is greater than 100 µM.

On to `O=C(O)C(F)(F)C(F)(F)C(F)(F)C(F)(F)C(F)(F)C(F)(F)C(F)(F)C(F)(F)C(F)(F)C(F)(F)F` [Perfluoroundecanoic_acid], for which the POD vs vehicle was greater than 100 µM.

As to `O=S(=O)([O-])C(F)(F)C(F)(F)C(F)(F)C(F)(F)F.[K+]` [Potassium_perfluorobutanesulfonate], the POD vs vehicle is greater than 100 µM.

The subject of another assay is 1309 (donor line of iPSC-derived cardiomyocytes). Described as above. Conditions: exposure time: 90 min. On the procedure: as §1
Take `O=C(O)C(F)(F)C(F)(F)C(F)(F)F` [Perfluorobutanoic_acid]: the POD vs vehicle was greater than 100 µM.

In turn, `O=C(O)C(F)(F)C(F)(F)C(F)(F)C(F)(F)C(F)(F)C(F)(F)C(F)(F)C(F)(F)C(F)(F)F` [Perfluorodecanoic_acid] returned a POD vs vehicle greater than 100 µM.

For the compound `O=C(O)C(F)(F)C(F)(F)C(F)(F)C(F)(F)C(F)(F)C(F)(F)F` [Perfluoroheptanoic_acid], the POD vs vehicle was greater than 100 µM.

For `NS(=O)(=O)C(F)(F)C(F)(F)C(F)(F)C(F)(F)C(F)(F)C(F)(F)F` [Perfluorohexanesulfonamide], the POD vs vehicle stood at 90.8 µM.

Consider `O=S(=O)(O)C(F)(F)C(F)(F)C(F)(F)C(F)(F)C(F)(F)C(F)(F)F` [Perfluorohexanesulfonic_acid], for which the POD vs vehicle is greater than 100 µM.

The compound `O=C(O)C(F)(F)C(F)(F)C(F)(F)C(F)(F)C(F)(F)F` [Perfluorohexanoic_acid] yielded a POD vs vehicle greater than 100 µM.

For the compound `O=C(O)C(F)(F)C(F)(F)C(F)(F)C(F)(F)C(F)(F)C(F)(F)C(F)(F)C(F)(F)F` [Perfluorononanoic_acid], the POD vs vehicle was greater than 100 µM.

Values taken from the supplement of paper PMC11368000.
